Test: Temperature (vital signs)
Settings: 30 mg
Experimental: The Investigational Medicinal Product (IMP) R(−)-ketamine hydrochloride in sterile water for intravenous injection was investigated as an […] treatment of TRD. The International Union of Pure and Applied Chemistry (IUPAC) name is of the IMP is (2R)-2-(2-chlorophenyl)-2-(methylamino)cyclohexan-1-one. Subjects received the solution at either 30 mg or 60 mg dose, or a placebo. The IMP or placebo was administered on Day 1 as a single IV infusion via an electronic infusion pump over 40 minutes. The duration of study participation for each subject was up to 29 days including a screening period, a 3-day in-clinic visit, and 2 follow-up visits. 101 subjects were enrolled in approximately 20 study centers in the EU and the US.
Tympanic or temporal temperature, heart rate, blood pressure (SBP/DBP), respiratory rate, and SpO2 were assessed. Blood pressure and pulse measurements will be assessed with a completely automated device while the subject is supine or semi-supine. Manual techniques will be used only if an automated device is not available. Blood pressure and pulse measurements should be preceded by at least 5 minutes of rest for the subject in a quiet setting without distractions (e.g., television, cell phones). An abnormal blood pressure value at screening may be repeated once after 5 minutes of relaxation to determine the subject's eligibility. Blood pressure was recorded using the same arm and position (supine or semi-supine) throughout the study, where possible. Vital signs (to be taken before blood collection for laboratory tests) consisted of 1 pulse and 3 blood pressure measurements (3 consecutive blood pressure readings will be recorded at intervals of at least 1 minute). The average of the 3 blood pressure readings was recorded in the CRF. A pulse oximeter was used to measure peripheral capillary oxygen saturation (SpO2) continuously from pre-dose until 4-hours post-dose. A pulse oximeter was clipped onto the finger or foot of the subject, and light will be sent through the finger or foot and measured on the other side.
In these tables, baseline value is defined as the last non-missing value prior to study drug administration.

CN[C@@]1(c2ccccc2Cl)CCCCC1=O.Cl [R(−)-ketamine, (2R)-2-(2-chlorophenyl)-2-(methylamino)cyclohexan-1-one]
Temperature, Max (Day 1, 15 minutes): 37.2 °C | Temperature, Mean (Day 1, 15 minutes): 36.57 °C | Temperature, Median (Day 1, 15 minutes): 36.50 °C | Temperature, Min (Day 1, 15 minutes): 36.4 °C | Temperature, Max (Day 1, 40 minutes): 37.2 °C | Temperature, Mean (Day 1, 40 minutes): 36.58 °C | Temperature, Median (Day 1, 40 minutes): 36.60 °C | Temperature, Min (Day 1, 40 minutes): 36.2 °C | Temperature, Max (Day 1, 60 minutes): 37.2 °C | Temperature, Mean (Day 1, 60 minutes): 36.57 °C | Temperature, Median (Day 1, 60 minutes): 36.50 °C | Temperature, Min (Day 1, 60 minutes): 36.3 °C | Temperature, Max (Day 1, 2 hours): 37.2 °C | Temperature, Mean (Day 1, 2 hours): 36.62 °C | Temperature, Median (Day 1, 2 hours): 36.60 °C | Temperature, Min (Day 1, 2 hours): 36.4 °C | Temperature, Max (Day 1, 4 hours): 37.1 °C | Temperature, Mean (Day 1, 4 hours): 36.57 °C | Temperature, Median (Day 1, 4 hours): 36.60 °C | Temperature, Min (Day 1, 4 hours): 36.3 °C | Temperature, Max (Day 1, 6 hours): 37.2 °C | Temperature, Mean (Day 1, 6 hours): 36.63 °C | Temperature, Median (Day 1, 6 hours): 36.60 °C | Temperature, Min (Day 1, 6 hours): 36.3 °C | Temperature, Max (Day 2 - Discharge): 37.1 °C | Temperature, Mean (Day 2 - Discharge): 36.59 °C | Temperature, Median (Day 2 - Discharge): 36.60 °C | Temperature, Min (Day 2 - Discharge): 35.9 °C | Temperature, Max (Day 8): 36.8 °C | Temperature, Mean (Day 8): 36.50 °C | Temperature, Median (Day 8): 36.50 °C | Temperature, Min (Day 8): 36.1 °C | Temperature, Max (Day 15): 37.1 °C | Temperature, Mean (Day 15): 36.60 °C | Temperature, Median (Day 15): 36.60 °C | Temperature, Min (Day 15): 36.2 °C | Temperature, Change from Baseline, Max (to Day 1, 15 minutes): 0.4 °C | Temperature, Change from Baseline, Mean (to Day 1, 15 minutes): 0.05 °C | Temperature, Change from Baseline, Median (to Day 1, 15 minutes): 0.10 °C | Temperature, Change from Baseline, Min (to Day 1, 15 minutes): −0.3 °C | Temperature, Change from Baseline, Max (to Day 1, 40 minutes): 0.5 °C | Temperature, Change from Baseline, Mean (to Day 1, 40 minutes): 0.05 °C | Temperature, Change from Baseline, Median (to Day 1, 40 minutes): 0.00 °C | Temperature, Change from Baseline, Min (to Day 1, 40 minutes): −0.2 °C | Temperature, Change from Baseline, Max (to Day 1, 60 minutes): 0.5 °C | Temperature, Change from Baseline, Mean (to Day 1, 60 minutes): 0.05 °C | Temperature, Change from Baseline, Median (to Day 1, 60 minutes): 0.00 °C | Temperature, Change from Baseline, Min (to Day 1, 60 minutes): −0.3 °C | Temperature, Change from Baseline, Max (to Day 1, 2 hours): 0.7 °C | Temperature, Change from Baseline, Mean (to Day 1, 2 hours): 0.08 °C | Temperature, Change from Baseline, Median (to Day 1, 2 hours): 0.10 °C | Temperature, Change from Baseline, Min (to Day 1, 2 hours): −0.2 °C | Temperature, Change from Baseline, Max (to Day 1, 4 hours): 0.5 °C | Temperature, Change from Baseline, Mean (to Day 1, 4 hours): 0.03 °C | Temperature, Change from Baseline, Median (to Day 1, 4 hours): 0.00 °C | Temperature, Change from Baseline, Min (to Day 1, 4 hours): −0.4 °C | Temperature, Change from Baseline, Max (to Day 1, 6 hours): 0.9 °C | Temperature, Change from Baseline, Mean (to Day 1, 6 hours): 0.09 °C | Temperature, Change from Baseline, Median (to Day 1, 6 hours): 0.10 °C | Temperature, Change from Baseline, Min (to Day 1, 6 hours): −0.4 °C | Temperature, Change from Baseline, Max (to Day 2 - Discharge): 0.5 °C | Temperature, Change from Baseline, Mean (to Day 2 - Discharge): 0.05 °C | Temperature, Change from Baseline, Median (to Day 2 - Discharge): 0.00 °C | Temperature, Change from Baseline, Min (to Day 2 - Discharge): −0.3 °C | Temperature, Change from Baseline, Max (to Day 8): 0.6 °C | Temperature, Change from Baseline, Mean (to Day 8): −0.03 °C | Temperature, Change from Baseline, Median (to Day 8): 0.00 °C | Temperature, Change from Baseline, Min (to Day 8): −0.7 °C | Temperature, Change from Baseline, Max (to Day 15): 0.9 °C | Temperature, Change from Baseline, Mean (to Day 15): 0.05 °C | Temperature, Change from Baseline, Median (to Day 15): 0.00 °C | Temperature, Change from Baseline, Min (to Day 15): −0.4 °C

From US20260027068A1, “METHODS OF ADM[…]-KETAMINE” (Perception Neuroscience, Inc., priority 2022, published 2026)
